What was measured:
human CCR6 = target: T1, human CCR6 (Homo sapiens, UniProt P51684); test: Human CCR6-CRE reporter assay; assay type: cell-based; design: The second construct contained the open reading frame of human CCR6 in the pUNO1 backbone; host or cells: 293FT cells; conditions: relative -Log IC50; 293FT cells transfected with human CCR6 and CRE-luciferase reporter; 6 μM Forskolin, 6 nM CCL20; 5 h
T1 sequence (P51684 1-374): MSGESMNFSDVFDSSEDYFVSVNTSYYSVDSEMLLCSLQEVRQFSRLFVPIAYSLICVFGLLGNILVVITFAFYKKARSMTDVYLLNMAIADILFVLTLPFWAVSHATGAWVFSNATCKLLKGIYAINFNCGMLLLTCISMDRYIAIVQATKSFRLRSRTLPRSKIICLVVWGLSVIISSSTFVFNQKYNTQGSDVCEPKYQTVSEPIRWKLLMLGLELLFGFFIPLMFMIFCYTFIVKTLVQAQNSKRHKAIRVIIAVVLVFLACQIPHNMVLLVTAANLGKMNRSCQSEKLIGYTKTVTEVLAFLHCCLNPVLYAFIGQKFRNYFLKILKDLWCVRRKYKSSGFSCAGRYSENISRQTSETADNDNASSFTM
In short: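 293FT cells transiently co-transfected with human CCR6 and a CRE-luc2P reporter, used 48 h later. Compounds incubated with cells in medium containing 6 μM Forskolin and 6 nM CCL20 (assay-medium levels), 0.1% DMSO final, 5 h at 37° C; luminescence read, relative −Log IC50 from four-parameter fit.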

Human CD4+ T cells = test: CD4+ T cells chemotaxis assay towards CCL20; assay type: cell-based; conditions: Homo sapiens, CD4+ T cell, 3 h, relative -Log IC50, human CD4+ T cells stimulated with anti-CD3 and anti-CD28, migration towards 150 ng/ml CCL20
From the text: CD4+ T Cells Chemotaxis Assay Towards CCL20
Human CD4+ T cells were isolated from buffy coats of healthy donors using a CD4+ T Cell Isolation Kit (Miltenyi Biotec130-096-533). Isolated T cells were stimulated overnight with anti-CD3 and anti-CD28 antibodies (Biolegend 300314/302934) in growth medium (RPMI1640, 10% heat-inactivated FBS, 1× pen/strep (Gibco 15140)). For the chemotaxis assay, Corning Transwell plates were used with a pore size of 5 m (Corning 3388). T cells were counted and diluted to 6*10^6 cells/ml in chemotaxis medium (RPMI1640, 1% BSA, pen/strep). Compounds were four-fold serially diluted in DMSO. Further dilutions were made in chemotaxis medium. Cells were incubated with test compounds for 30 min at 37° C. prior to initiation of the assay (3*10^6 cells/ml). Final DMSO concentration in the assay was 0.2%. Wells of the Transwell plates were filled with 200 μl chemotaxis medium containing 150 ng/ml CCL20 (R&D systems 360-MP). 50 μl of the cell/compound suspension was added to the inserts of the Transwell plates (150,000 cells/insert). The Transwell plates were placed in an incubator at 37° C., 5% CO2 for 3 h. After 3 h, the number of migrated cells was quantified using CellTiter Glo (Promega). Percentage inhibition values were calculated based on the low and high signal obtained with 0.2% DMSO in chemotaxis medium without and with CCL20, respectively. The relative −Log IC50 was determined with GraphPad Prism 9 using a four-parameter dose-response model.

Row | Compound | IC50 (human CCR6) [nM] | IC50 (Human CD4+ T cells) [nM]
1 | O=c1[nH]nc2ccc(-c3ccc(S(=O)(=O)N4CCC(Nc5ccc(S(F)(F)(F)(F)F)cc5)CC4)cc3)cn12 [Example 32, 6-{4-[(4-{[4-(pentafluoro-λ^6-sulfanyl)phenyl]Amino}piperidin-1-yl)sulfonyl]phenyl}-2H,3H-[1,2,4]triazolo[4,3-a]pyridin-3-one] | 100 | 3.98
2 | Cc1nc2ccc(-c3ccc(S(=O)(=O)[C@H]4CC[C@H](Nc5ccc(S(F)(F)(F)(F)F)cc5)CC4)cc3)cn2n1 [Example 40, 4-(pentafluoro-λ^6-sulfanyl)-N-[trans-4-(4-{2-methyl-[1,2,4]triazolo[1,5-a]pyridin-6-yl}benzenesulfonyl)cyclohexyl]aniline] | 100 | 10
3 | O=S(=O)(c1ccc(-c2ccc3nccn3c2)nc1)N1CCC(Nc2ccc(S(F)(F)(F)(F)F)cc2)CC1 [Example 77, 1-[(6-{imidazo[1,2-a]pyridin-6-yl}pyridin-3-yl)sulfonyl]-N-[4-(pentafluoro-λ^6-sulfanyl)phenyl]piperidin-4-amine] | 501 | 126
4 | N#Cc1cnc2ccc(-c3ccc(S(=O)(=O)N4CCC(Nc5cccc(S(F)(F)(F)(F)F)c5)CC4)cc3)cn12 [Example 81, 6-{4-[(4-{[3-(pentafluoro-λ^6-sulfanyl)phenyl]Amino}piperidin-1-yl)sulfonyl]phenyl}imidazo[1,2-a]pyridine-3-carbonitrile] | 126 | 158
5 | O=S(=O)(c1ccc(-c2ccc3nccn3c2)cc1)N1CCC(Nc2cccc(S(F)(F)(F)(F)F)c2)CC1 [Example 82, 1-(4-{imidazo[1,2-a]pyridin-6-yl}benzenesulfonyl)-N-[3-(pentafluoro-λ^6-sulfanyl)phenyl]piperidin-4-amine] | 200 | 316
6 | N=S(=O)(c1ccc(-c2ccnc(C(N)=O)c2)cc1)[C@H]1CC[C@H](Nc2ccc(S(F)(F)(F)(F)F)cc2)CC1 (stereo partly drawn) [Example 91, 4-(4-{[trans-4-{[4-(pentafluoro-λ^6-sulfanyl)phenyl]Amino}cyclohexyl]sulfonimidoyl}phenyl)pyridine-2-carboxamide] | 126 | 31.6
7 | N=S(=O)(c1ccc(-c2ccnc(C(N)=O)c2)cc1)N1CCC(Nc2ccc(S(F)(F)(F)(F)F)cc2)CC1 (centres unmarked) [Example 125, 4-{4-[(4-{[4-(pentafluoro-λ^6-sulfanyl)phenyl]Amino}piperidin-1-yl)sulfonimidoyl]phenyl}pyridine-2-carboxamide] | 200 | 126
8 | COC1CC2(CCN(c3ccc(S(=O)(=O)N4CCC(Nc5ccc(S(F)(F)(F)(F)F)cc5)CC4)cc3)CC2)C1 [Example 132, 1-(4-{2-methoxy-7-azaspiro[3.5]nonan-7-yl}benzenesulfonyl)-N-[4-(pentafluoro-λ^6-sulfanyl)phenyl]piperidin-4-amine] | 79.4 | 20
9 | O=C1NCCC12CCN(c1ccc(S(=O)(=O)N3CCC(Nc4ccc(S(F)(F)(F)(F)F)cc4)CC3)cc1)CC2 [Example 134, 8-{4-[(4-{[4-(pentafluoro-λ^6-sulfanyl)phenyl]amino}piperidin-1-yl)sulfonyl]phenyl}-2,8-diazaspiro[4.5]decan-1-one] | 158 | 10
10 | O=C1NC2(CCN(c3ccc(S(=O)(=O)N4CCC(Nc5ccc(S(F)(F)(F)(F)F)cc5)CC4)cc3)CC2)CO1 [Example 135, 8-{4-[(4-{[4-(pentafluoro-λ^6-sulfanyl)phenyl]amino}piperidin-1-yl)sulfonyl]phenyl}-3-oxa-1,8-diazaspiro[4.5]decan-2-one] | 126 | 25.1
11 | O=S(=O)(c1ccc(N2CCC3(CC2)COC3)cc1)N1CCC(Nc2ccc(S(F)(F)(F)(F)F)cc2)CC1 [Example 136, 1-(4-{2-oxa-7-azaspiro[3.5]nonan-7-yl}benzenesulfonyl)-N-[4-(pentafluoro-λ^6-sulfanyl)phenyl]piperidin-4-amine] | 126 | 200
12 | O=S(=O)(c1ccc(N2CC3CCC(C2)O3)cc1)N1CCC(Nc2ccc(S(F)(F)(F)(F)F)cc2)CC1 [Example 137, 1-(4-{8-oxa-3-azabicyclo[3.2.1]octan-3-yl}benzenesulfonyl)-N-[4-(pentafluoro-λ^6-sulfanyl)phenyl]piperidin-4-amine] | 200 | 126

Further lines, results first:

Row | IC50 (human CCR6) [nM] | IC50 (Human CD4+ T cells) [nM] | Compound
13 | 79.4 | 10 | O=C1NCc2ccc(-c3ccc(S(=O)(=O)[C@H]4CC[C@H](Nc5ccc(S(F)(F)(F)(F)F)cc5)CC4)cc3)cc21 [Example 9, 6-(4-{[trans-4-{[4-(pentafluoro-λ^6-sulfanyl)phenyl]Amino}cyclohexyl]sulfonyl}phenyl)-2,3-dihydro-1H-isoindol-1-one]
14 | 79.4 | 15.8 | O=S(=O)(c1ccc(-c2ccc3nccn3c2)cc1)[C@H]1CC[C@H](Nc2ccc(S(F)(F)(F)(F)F)cc2)CC1 [Example 12, 4-(pentafluoro-λ^6-sulfanyl)-N-[trans-4-(4-{imidazo[1,2-a]pyridin-6-yl}benzenesulfonyl)cyclohexyl]aniline]
15 | 39.8 | 5.01 | N#Cc1cnc2ccc(-c3ccc(S(=O)(=O)N4CCC(Nc5ccc(S(F)(F)(F)(F)F)cc5)CC4)cc3)cn12 [Example 25, 6-{4-[(4-{[4-(pentafluoro-λ^6-sulfanyl)phenyl]Amino}piperidin-1-yl)sulfonyl]phenyl}imidazo[1,2-a]pyridine-3-carbonitrile]
16 | 39.8 | 0.631 | N#Cc1n[nH]c2ccc(-c3ccc(S(=O)(=O)[C@H]4CC[C@H](Nc5ccc(S(F)(F)(F)(F)F)cc5)CC4)cc3)cc12 [Example 38, 5-(4-{[trans-4-{[4-(pentafluoro-λ^6-sulfanyl)phenyl]Amino}cyclohexyl]sulfonyl}phenyl)-1H-indazole-3-carbonitrile]
17 | 63.1 | 15.8 | O=S(=O)(c1ccc(-c2ccc(O)nc2)cc1)[C@H]1CC[C@H](Nc2ccc(S(F)(F)(F)(F)F)cc2)CC1 [Example 56, 5-(4-{[trans-4-{[4-(pentafluoro-λ^6-sulfanyl)phenyl]Amino}cyclohexyl]sulfonyl}phenyl)pyridin-2-ol]
18 | 39.8 | 3.98 | O=C1NC(=O)C2(CCN(c3ccc(S(=O)(=O)N4CCC(Nc5ccc(S(F)(F)(F)(F)F)cc5)CC4)cc3)CC2)N1 [Example 133, 8-{4-[(4-{[4-(pentafluoro-λ^6-sulfanyl)phenyl]amino}piperidin-1-yl)sulfonyl]phenyl}-1,3,8-triazaspiro[4.5]decane-2,4-dione]
19 | 63.1 | 2.51 | CC(C)c1nnc2cnc(-c3ccc(S(=O)(=O)N4CCC(Nc5ccc(S(F)(F)(F)(F)F)cc5)CC4)cc3)cn12 [Example 140, N-[4-(pentafluoro-λ^6-sulfanyl)phenyl]-1-{4-[3-(propan-2-yl)-[1,2,4]triazolo[4,3-a]pyrazin-6-yl]benzenesulfonyl}piperidin-4-amine]
20 | 50.1 | 5.01 | NC(=O)c1cc(-c2ccc(S(=O)(=O)[C@H]3CC[C@H](Nc4ccc(S(F)(F)(F)(F)F)cc4)CC3)cc2)cs1 [Example 148, 4-(4-{[trans-4-{[4-(pentafluoro-λ^6-sulfanyl)phenyl]amino}cyclohexyl]sulfonyl}phenyl)thiophene-2-carboxamide]
21 | 63.1 | 1 | Cc1n[nH]c2ncc(-c3ccc(S(=O)(=O)[C@H]4CC[C@H](Nc5ccc(S(F)(F)(F)(F)F)cc5)CC4)cc3)cc12 [Example 150, 4-(pentafluoro-λ^6-sulfanyl)-N-[trans-4-(4-{3-methyl-1H-pyrazolo[3,4-b]pyridin-5-yl}benzenesulfonyl)cyclohexyl]aniline]
22 | 63.1 | 6.31 | O=S(=O)(c1ccc(-c2cc(C(F)(F)F)c3nccn3c2)cc1)[C@H]1CC[C@H](Nc2ccc(S(F)(F)(F)(F)F)cc2)CC1 [Example 151, 4-(pentafluoro-λ^6-sulfanyl)-N-[trans-4-{4-[8-(trifluoromethyl)imidazo[1,2-a]pyridin-6-yl]benzenesulfonyl}cyclohexyl]aniline]

— patent US20260070902A1, “SULFONYL DERIVATIVES AS CCR6 INHIBITORS” (Hoffmann-La Roche Inc., priority 2022, published 2026)
